# Patent publication US9551724B2, “5-fluoro-uracil immunoassay” (SALADAX BIOMEDICAL, INC., priority 2005, dated 2017)
# Experiments:
# Format in all cases: binding, BALB/c mice
# [1] = test system: monoclonal antibody to 3-substituted 5-FU KLH immunogen (example 6b); assay: Indirect competitive microtiter plate immunoassay (ELISA), monoclonal antibody; plate coating 3-substituted BSA conjugate (1:1, example 7b); conditions: relative to 5-FU (ratio of IC50 for 5-FU to IC50 of analyte), 3-Substituted KLH Immunogen, plate coating 3-Substituted BSA Conjugate (example 7b)
# Experimental: (§1) Ten Female BALB/c mice were immunized i.p. with 100 μg/mouse of 5-FU-KLH prepared in example 5 or with 5-FU-BTG prepared in example 6a, emulsified in Complete Freund's Adjuvant. Mice were boosted once four weeks after the initial injection with 100 μg/mouse of the same immunogens emulsified in Incomplete Freund's Adjuvant. Ten days after the boost test bleeds from each mouse were obtained by orbital bleed. The anti-serum from these test bleeds contained 5-FU antibodies evaluated in Examples 12a, 13, and 14. For monoclonal antibodies ten Female BALB/c mice were immunized i.p. with 100 μg/mouse of 3-substituted 5-FU-KLH prepared in example 6b, emulsified in Complete Freund's Adjuvant. Mice were boosted once four weeks after the initial injection with 100 μg/mouse of the same immunogens emulsified in Incomplete Freund's Adjuvant. Ten days after the boost test bleeds from each mouse were obtained by orbital bleed and these were screened as in examples 12a and 15. To produce monoclonal antibodies starting four days before the fusion (day 0), the mice were injected i.p. with 400 μg (day 3), 200 μg (day 2) and 200 μg (day 1) 3-substituted 5-FU KLH immunogen in PBS on three successive days. Spleen cells were isolated from the selected mice and fused with 2×10^7 SP2/0 cells with 50% polyethylene glycol 1500 according to the method of Coligan, J. E. et al., eds., Current Protocols in Immunology, 2.5.1-2.5.8, (1992), Wiley & Sons, NY. The fused cells were plated on 10 96-well plates in DMEM/F12 supplemented with 20% FetalClone I, 2% L-glutamine (100 mM) and 2% 50×HAT. Two weeks later, the hybridoma supernatant was assayed for the presence of anti-5-FU by ELISA (example 12b). Positive wells were expanded and again screened by the same method. The positive clones were confirmed for 5-FU binding by a competitive ELISA (examples 12a and 15). Clones positive by ELISA were subcloned once or twice by limiting dilution according to the method disclosed in Coligan, J. E. et al., eds., Current Protocols in Immunology, 2.5.8-2.5.17, (1992), Wiley & Sons, NY.
# (§2) The ELISA method for measuring 5-FU concentrations was performed in polystyrene microtiter plates (Nunc MaxiSorp C8 or F8 Immunomodules) optimized for protein binding and containing 96 wells per plate. Each well was coated with 5-FU-BSA conjugate (prepared as in example 7b) by adding 300 μL of 5-FU-BSA conjugate at 10 μg/mL in 0.05M sodium bicarbonate, pH=9.6, and incubating for three hours at room temperature. The wells were washed with 0.05M sodium bicarbonate, pH9.6 and then were blocked with 375 μL of 5% sucrose, 0.2% sodium caseinate solution for 30 minutes at room temperature. After removal of the post-coat solution the plates were dried at 37° C. overnight.
# (§3) The ELISA method for screening 5-FU antibodies (produced in example 9) was performed with the microtiter plates that were sensitized with 5-FU-BSA as described in examples 7a, 7b and 8. The antibody screening assay was performed by diluting the antisera containing 5-FU antibodies to 1:100, 1:1,000, 1:10,000 and 1:100,000 in phosphate buffered saline containing 0.1% BSA and 0.01% thimerosal. To each well of 5-FU-BSA sensitized wells (prepared in examples 11a, 11b and 10) 100 μL of diluted antibody was added and incubated for 10 minutes at room temperature with shaking. During this incubation antibody binds to the 5-FU-conjugate in the well. The wells of the plates were washed three times with 0.02 M TRIS, 0.9% NaCl, 0.5% Tween-80 and 0.001% Thimerosal, pH 7.8 to remove any unbound antibody. To detect the amount of 5-FU antibody bound to the 5-FU-BSA conjugate in the wells, 100 μL of a goat anti-mouse antibody-HRP enzyme conjugate (Jackson Immunoresearch) diluted 1/2000 in PBS with 0.1% BSA, 0.05% ANS, 0.01% thimerosal, capable of binding specifically with murine immunoglobulins and producing a colored product when incubated with a substrate, were added to each well. […]
# [2] = test system: polyclonal antibody to 1-Substituted 5-FU KLH Immunogen (example 5); assay: Indirect competitive microtiter plate immunoassay (ELISA), antibodies to 5-FU derivative 4 conjugate; plate coating 3-substituted BSA conjugate (10:1, example 7a); conditions: relative to 5-FU (ratio of IC50 for 5-FU to IC50 of analyte), 1-Substituted KLH Immunogen, plate coating 3-Substituted BSA Conjugate (10:1 ratio)
# Experimental: as §1
# as §2, with “7a)” for “7b)”, “400” for “375”
# as §3
# [3] = test system: polyclonal antibody to 3-Substituted 5-FU BTG Immunogen (example 6a); assay: Indirect competitive microtiter plate immunoassay (ELISA), antibodies to 5-FU derivative 13 conjugate; plate coating 1-substituted BSA conjugate (20:1, example 8); conditions: relative to 5-FU (ratio of IC50 for 5-FU to IC50 of analyte), 3-Substituted BTG Immunogen, plate coating 1-Substituted BSA Conjugate (20:1 ratio)
# Experimental: as §1
# as §2, with “8)” for “7b)”, “400” for “375”
# as §3
smiles,measurement,setting,value
"O=c1[nH]c(=O)n(C2CCCO2)cc1F (stereo not drawn) [Tegafur, tegafur]",Cross-Reactivity,[1],1.0%
same,Cross-Reactivity,[1]; listed as tegafur,approximately 1%
same,Cross-Reactivity,[2],200.0%
same,Cross-Reactivity,[2]; listed as tegafur,200%
same,Cross-Reactivity,[3],0.5%
same,Cross-Reactivity,[3]; listed as tegafur,less than 1%
"O=c1[nH]cc(F)c(=O)[nH]1 [5Fluorouracil, 5-fluoro-uracil]",Cross-Reactivity,[1],100.0%
same,Cross-Reactivity,[2],100.0%
same,Cross-Reactivity,[3],100.0%
"Nc1cc[nH]c(=O)n1 [Cytosine, cytosine]",Cross-Reactivity,[1],<0.01%
same,Cross-Reactivity,[1]; listed as cytosine,less than 0.01%
same,Cross-Reactivity,[2],<0.1%
same,Cross-Reactivity,[3],<0.3%
same,Cross-Reactivity,[3]; listed as cytosine,less than 0.03%
"Cc1c[nH]c(=O)[nH]c1=O [Thymine, thymine]",Cross-Reactivity,[1],3.2%
same,Cross-Reactivity,[1]; listed as thymine,less than 4%
same,Cross-Reactivity,[2],6.7%
same,Cross-Reactivity,[3],12.0%
same,Cross-Reactivity,[3]; listed as thymine,about 12%
"O=c1cc[nH]c(=O)[nH]1 [Uracil, uracil]",Cross-Reactivity,[1],7.3%
same,Cross-Reactivity,[1]; listed as uracil,less than 8%
same,Cross-Reactivity,[2],4.0%
same,Cross-Reactivity,[3],7.5%
same,Cross-Reactivity,[3]; listed as uracil,less than 8%
